Experimental data taken from patent US11178868B2, “Alkynyl-substituted 3-phenylpyrrolidine-2,4-diones and use thereof as herbicides” (Bayer CropScience Aktiengesellschaft, priority 2015, dated 2021).

Tests used:
Format in all cases: in vivo
Setaria viridis [1] = experiment: Post-emergence herbicidal effect; conditions: assessed visually after about 3 weeks
Description: (§1) Seeds of monocotyledonous and dicotyledonous weed and crop plants are laid out in sandy loam in wood-fibre pots, covered with soil and cultivated in a greenhouse under good growth conditions. 2 to 3 weeks after sowing, the test plants are treated at the one-leaf stage. The compounds according to the invention, formulated in the form of wettable powders (WP) or as emulsion concentrates (EC), are then sprayed as aqueous suspension or emulsion at a water application rate of 600 to 800 I/ha (converted) with the addition of 0.2% of wetting agent onto the green parts of the plants. After the test plants have been left to stand in the greenhouse under optimal growth conditions for about 3 weeks, the action of the preparations is assessed visually in comparison to untreated controls (herbicidal action in percent (%): 100% activity=the plants have died, 0% activity=like control plants).

Avena fatua [2] = experiment: Post-emergence herbicidal effect; conditions: assessed visually after about 3 weeks
Description: as §1

Polygonum convolvulus = experiment: Post-emergence herbicidal effect; conditions: 80 g a.i./ha, assessed visually after about 3 weeks
Description: as §1

Amaranthus retroflexus = experiment: Post-emergence herbicidal effect; conditions: assessed visually after about 3 weeks
Description: as §1

Alopecurus myosuroides [3] = experiment: Post-emergence herbicidal effect; conditions: assessed visually after about 3 weeks
Description: as §1

Lolium multiflorum [4] = experiment: Post-emergence herbicidal effect; conditions: assessed visually after about 3 weeks
Description: as §1

Echinochloa crus-galli [5] = experiment: Post-emergence herbicidal effect; conditions: assessed visually after about 3 weeks
Description: as §1

Setaria viridis [6] = experiment: Pre-emergence herbicidal effect; conditions: scored visually after 3 weeks
Source text: (§2) Seeds of monocotyledonous and dicotyledonous weed plants and crop plants are laid out in wood-fibre pots in sandy loam and covered with soil. The compounds according to the invention formulated in the form of wettable powders (WP) or as emulsion concentrates (EC) are then applied as aqueous suspension or emulsion at a water application rate of 600 to 800 I/ha (converted) with the addition of 0.2% wetting agent to the surface of the covering soil. After the treatment, the pots are placed in a greenhouse and kept under good growth conditions for the trial plants. The damage to the test plants is scored visually after a test period of 3 weeks by comparison with untreated controls (herbicidal activity in percent (%): 100% activity=the plants have died, 0% activity=like control plants).

Avena fatua [7] = experiment: Pre-emergence herbicidal effect; conditions: scored visually after 3 weeks
Source text: as §2

Cyperus esculentus = experiment: Pre-emergence herbicidal effect; conditions: 320 g a.i./ha, scored visually after 3 weeks
Source text: as §2

Alopecurus myosuroides [8] = experiment: Pre-emergence herbicidal effect; conditions: scored visually after 3 weeks
Source text: as §2

Lolium multiflorum [9] = experiment: Pre-emergence herbicidal effect; conditions: scored visually after 3 weeks
Source text: as §2

Echinochloa crus-galli [10] = experiment: Pre-emergence herbicidal effect; conditions: scored visually after 3 weeks
Source text: as §2

SMILES	Herbicidal effect against [%] SETVI (Setaria viridis [1]; 20 g a.i./ha) [%]	Herbicidal effect against [%] SETVI (Setaria viridis [1]; 80 g a.i./ha) [%]	Herbicidal effect against [%] AVEFA (Avena fatua [2]; 20 g a.i./ha) [%]	Herbicidal effect against [%] AVEFA (Avena fatua [2]; 80 g a.i./ha) [%]	Herbicidal effect against [%] ALOMY (Alopecurus myosuroides [3]; 20 g a.i./ha) [%]	Herbicidal effect against [%] ALOMY (Alopecurus myosuroides [3]; 80 g a.i./ha) [%]	Herbicidal effect against [%] LOLMU (Lolium multiflorum [4]; 20 g a.i./ha) [%]	Herbicidal effect against [%] LOLMU (Lolium multiflorum [4]; 80 g a.i./ha) [%]	Herbicidal effect against [%] ECHCG (Echinochloa crus-galli [5]; 20 g a.i./ha) [%]	Herbicidal effect against [%] ECHCG (Echinochloa crus-galli [5]; 80 g a.i./ha) [%]	Herbicidal effect against [%] SETVI (Setaria viridis [6]; 80 g a.i./ha) [%]	Herbicidal effect against [%] SETVI (Setaria viridis [6]; 320 g a.i./ha) [%]	Herbicidal effect against [%] AVEFA (Avena fatua [7]; 80 g a.i./ha) [%]	Herbicidal effect against [%] AVEFA (Avena fatua [7]; 320 g a.i./ha) [%]	Herbicidal effect against [%] ALOMY (Alopecurus myosuroides [8]; 80 g a.i./ha) [%]	Herbicidal effect against [%] ALOMY (Alopecurus myosuroides [8]; 320 g a.i./ha) [%]	Herbicidal effect against [%] LOLMU (Lolium multiflorum [9]; 80 g a.i./ha) [%]	Herbicidal effect against [%] LOLMU (Lolium multiflorum [9]; 320 g a.i./ha) [%]	Herbicidal effect against [%] ECHCG (Echinochloa crus-galli [10]; 80 g a.i./ha) [%]	Herbicidal effect against [%] ECHCG (Echinochloa crus-galli [10]; 320 g a.i./ha) [%]	also measured
CC#Cc1cc(C)c(C2=C(O)C3(CCCC(OCCOC)C3)NC2=O)c(C)c1 (centres unmarked) [Example D6]	100	100	100	100	100	100	100	100	100	100	100	100	100	100	100	100	100	100	100	100	Herbicidal effect against [%] POLCO (Polygonum convolvulus): 80%; Herbicidal effect against [%] AMARE (Amaranthus retroflexus; 20 g a.i./ha): 80%; Herbicidal effect against [%] AMARE (Amaranthus retroflexus; 80 g a.i./ha): 80%; Herbicidal effect against [%] CYPES (Cyperus esculentus): 90%
CC#Cc1cc(C)c(C2=C(O)C3(CCCC(OCCOC)C3)NC2=O)c(CC)c1 (centres unmarked) [Example D8]	100	100	100	100	100	100	100	100	100	100	100	100	100	100	100	100	100	100	100	100	Herbicidal effect against [%] CYPES (Cyperus esculentus): 100%
CC#Cc1cc(C)c(C2=C(OC(=O)OCC)C3(CCCC(OCCOC)C3)NC2=O)c(CC)c1 (centres unmarked) [Example P13]	100	100	100	100	100	100	100	100	100	100	100	100	100	100	100	100	100	100	100	100	Herbicidal effect against [%] CYPES (Cyperus esculentus): 90%
CC#Cc1cc(C)c(C2=C(OC(=O)OCC)C3(CCCC(OCCOC)C3)NC2=O)c(C)c1 (centres unmarked) [Example P15]	100	100	100	100	100	100	100	100	100	100	100	100	100	100	100	100	100	100	100	100	Herbicidal effect against [%] POLCO (Polygonum convolvulus): 80%; Herbicidal effect against [%] AMARE (Amaranthus retroflexus; 20 g a.i./ha): 80%; Herbicidal effect against [%] AMARE (Amaranthus retroflexus; 80 g a.i./ha): 80%
